Assay results: ChEMBL document CHEMBL3112450, “Synthesis and in vitro antitumor evaluation of primary amine substituted quinazoline linked benzimidazole” (Bioorg Med Chem Lett, 2014)

Key:
Assay type in all cases: functional
SF-268 = experiment: Cytotoxicity against human SF268 cells assessed as cell growth at 10^-6 M after 48 hrs by SRB assay; details: SF-268, 48 h, read-out: Activity
SR [1] = experiment: Cytotoxicity against human SR cells assessed as cell growth at 10^-8 M after 48 hrs by SRB assay; details: read-out: Activity
MOLT-4 = experiment: Cytotoxicity against human MOLT4 cells after 48 hrs by SRB assay; details: MOLT-4, 48 h
COLO 205 [2] = experiment: Cytotoxicity against human COLO205 cells assessed as cell growth at 10^-6 M after 48 hrs by SRB assay; details: COLO 205, 48 h, read-out: Activity
SF-295 = experiment: Cytotoxicity against human SF295 cells assessed as cell growth at 10^-7 M after 48 hrs by SRB assay; details: SF-295, 48 h, read-out: Activity
Malme-3M = experiment: Cytotoxicity against human MALME-3M cells assessed as cell growth at 10^-4 M after 48 hrs by SRB assay; details: read-out: Activity
SR [3] = experiment: Cytotoxicity against human SR cells assessed as growth inhibition at 10 uM after 48 hrs by SRB assay; details: read-out: GI
HCC 2998 = experiment: Cytotoxicity against human HCC2998 cells after 48 hrs by SRB assay; details: HCC 2998, 48 h
CCRF-CEM = experiment: Cytotoxicity against human CCRF-CEM cells assessed as cell growth at 10^-8 M after 48 hrs by SRB assay; details: read-out: Activity
TK-10 [4] = experiment: Cytotoxicity against human TK10 cells assessed as cell growth at 10^-7 M after 48 hrs by SRB assay; details: TK-10, 48 h, read-out: Activity
LOX IMVI [5] = experiment: Cytotoxicity against human LOXIMVI cells assessed as cell growth at 10^-8 M after 48 hrs by SRB assay; details: read-out: Activity
NCI-H460 = experiment: Cytotoxicity against human NCI-H460 cells assessed as cell growth at 10^-4 M after 48 hrs by SRB assay; details: NCI-H460, 48 h, read-out: Activity
A498 = experiment: Cytotoxicity against human A498 cells assessed as cell growth at 10^-7 M after 48 hrs by SRB assay; details: A498, 48 h, read-out: Activity
SW-620 = experiment: Cytotoxicity against human SW620 cells assessed as growth inhibition at 10 uM after 48 hrs by SRB assay; details: SW-620, 48 h, read-out: GI
TK-10 [6] = experiment: Cytotoxicity against human TK10 cells assessed as cell growth at 10^-4 M after 48 hrs by SRB assay; details: TK-10, 48 h, read-out: Activity
PC-3 = experiment: Cytotoxicity against human PC3 cells assessed as growth inhibition at 10 uM after 48 hrs by SRB assay; details: PC-3, 48 h, read-out: GI
[7] = Cytotoxicity against human OVCAR5 cells assessed as cell growth at 10^-7 M after 48 hrs by SRB assay; details: OVCAR-5, 48 h, read-out: Activity
T47D [8] = experiment: Cytotoxicity against human T47D cells assessed as cell growth at 10^-8 M after 48 hrs by SRB assay; details: read-out: Activity
SNB-19 = experiment: Cytotoxicity against human SNB19 cells assessed as cell growth at 10^-8 M after 48 hrs by SRB assay; details: SNB-19, 48 h, read-out: Activity
A549 = experiment: Cytotoxicity against human A549 cells assessed as cell growth at 10^-6 M after 48 hrs by SRB assay; details: A549, 48 h, read-out: Activity
NCI-H322M = experiment: Cytotoxicity against human NCI-H322M cells assessed as cell growth at 10^-7 M after 48 hrs by SRB assay; details: read-out: Activity
TK-10 [9] = experiment: Cytotoxicity against human TK10 cells assessed as cell growth at 10^-8 M after 48 hrs by SRB assay; details: TK-10, 48 h, read-out: Activity
LOX IMVI [10] = experiment: Cytotoxicity against human LOXIMVI cells after 48 hrs by SRB assay
[11] = Cytotoxicity against human OVCAR5 cells assessed as cell growth at 10^-6 M after 48 hrs by SRB assay; details: OVCAR-5, 48 h, read-out: Activity
[12] = Cytotoxicity against human Hs578T cells after 48 hrs by SRB assay; details: Hs-578T
OVCAR-8 = experiment: Cytotoxicity against human OVCAR8 cells assessed as growth inhibition at 10 uM after 48 hrs by SRB assay; details: OVCAR-8, 48 h, read-out: GI
M14 = experiment: Cytotoxicity against human M14 cells after 48 hrs by SRB assay; details: M14, 48 h
HCT-116 = experiment: Cytotoxicity against human HCT116 cells assessed as cell growth at 10^-8 M after 48 hrs by SRB assay; details: HCT-116, 48 h, read-out: Activity
HOP-62 [13] = experiment: Cytotoxicity against human HOP62 cells assessed as cell growth at 10^-4 M after 48 hrs by SRB assay; details: HOP-62, 48 h, read-out: Activity
T47D [14] = experiment: Cytotoxicity against human T47D cells assessed as cell growth at 10^-7 M after 48 hrs by SRB assay; details: read-out: Activity
SR [15] = experiment: Cytotoxicity against human SR cells after 48 hrs by SRB assay
[16] = Cytotoxicity against human OVCAR5 cells after 48 hrs by SRB assay; details: OVCAR-5, 48 h
HOP-62 [17] = experiment: Cytotoxicity against human HOP62 cells assessed as cell growth at 10^-6 M after 48 hrs by SRB assay; details: HOP-62, 48 h, read-out: Activity
IGROV-1 = experiment: Cytotoxicity against human IGROV1 cells assessed as cell growth at 10^-6 M after 48 hrs by SRB assay; details: IGROV-1, 48 h, read-out: Activity
HOP-62 [18] = experiment: Cytotoxicity against human HOP62 cells after 48 hrs by SRB assay; details: HOP-62, 48 h
COLO 205 [19] = experiment: Cytotoxicity against human COLO205 cells assessed as cell growth at 10^-4 M after 48 hrs by SRB assay; details: COLO 205, 48 h, read-out: Activity
MCF7 = experiment: Cytotoxicity against human MCF7 cells assessed as cell growth at 10^-8 M after 48 hrs by SRB assay; details: MCF7, 48 h, read-out: Activity
HL-60(TB) = experiment: Cytotoxicity against human HL-60(TB) cells assessed as cell growth at 10^-7 M after 48 hrs by SRB assay; details: HL-60, 48 h, read-out: Activity

C=CCn1c(C)nc2ccc(Nc3nc(Nc4ccc(F)cc4)nc4ccccc34)cc21
growth at 1 µM (SF-268): 94% | growth at 0.01 µM (SR [1]): 98% | GI50 (MOLT-4): 1.77 µM | LC50 (MOLT-4): > 100 µM | TGI (MOLT-4): 6.27 µM | growth at 1 µM (COLO 205 [2]): 95% | growth at 0.1 µM (SF-295): 92% | growth at 100 µM (Malme-3M): -51% | inhibition of growth at 10 µM (SR [3]): 70% | GI50 (HCC 2998): 8.87 µM | LC50 (50% lethal concentration) (HCC 2998): 58.2 µM | TGI (HCC 2998): 23.5 µM | growth at 0.01 µM (CCRF-CEM): 99% | growth at 0.1 µM (TK-10 [4]): 104% | growth at 0.01 µM (LOX IMVI [5]): 97% | growth at 100 µM (NCI-H460): -55% | growth at 0.1 µM (A498): 83% | inhibition of growth at 10 µM (SW-620): 50% | growth at 100 µM (TK-10 [6]): -63% | inhibition of growth at 10 µM (PC-3): 50% | growth at 0.1 µM [7]: 101% | growth at 0.01 µM (T47D [8]): 85% | growth at 0.01 µM (SNB-19): 95% | growth at 1 µM (A549): 89% | growth at 0.1 µM (NCI-H322M): 96% | growth at 0.01 µM (TK-10 [9]): 99% | GI50 (LOX IMVI [10]): 4.36 µM | LC50 (LOX IMVI [10]): > 100 µM | TGI (LOX IMVI [10]): 23 µM | growth at 1 µM [11]: 92% | GI50 [12]: 9.83 µM | LC50 [12]: > 100 µM | TGI [12]: 56.7 µM | inhibition of growth at 10 µM (OVCAR-8): 50% | GI50 (M14): 3.26 µM | TGI (M14): 14.2 µM | CC50 (M14; read-out: LC50 (the source's name)): > 100 µM | growth at 0.01 µM (HCT-116): 99% | growth at 100 µM (HOP-62 [13]): -46% | growth at 0.1 µM (T47D [14]): 85% | GI50 (SR [15]): 2.26 µM | LC50 (SR [15]): > 100 µM | TGI (SR [15]): 5.93 µM | GI50 [16]: 11.6 µM | LC50 [16]: 61.2 µM | TGI [16]: 26.6 µM | growth at 1 µM (HOP-62 [17]): 95% | growth at 1 µM (IGROV-1): 91% | GI50 (HOP-62 [18]): 1.88 µM | TGI (HOP-62 [18]): 3.76 µM | growth at 100 µM (COLO 205 [19]): -28% | growth at 0.01 µM (MCF7): 91% | growth at 0.1 µM (HL-60(TB)): 100%
